Experiment [1] relates to seeds of thale cress (Arabidopsis thaliana, Col-0). Description: Thale cress seed germination test. In kind it is in vivo. How it is done:
Seeds of thale cress (Arabidopsis thaliana, Col-0) were immersed in 500 μL of an aqueous solution of 70% ethanol for 30 minutes, subsequently in 500 μL of a 100% ethanol solution for 1 minute, washed five times in 1 mL of distilled water, then immersed in distilled water and, in a dark place, vernalized at 4° C. for 3 days. A solution of the sample in methanol was put in a 1.5 mL-microtube, and methanol was removed therefrom under reduced pressure. An aqueous solution of 0.5% agar (containing ½ MS medium inorganic salts) at 70° C. was added thereto and stirred, and subsequently the obtained mixture was placed in a 96-well plate to prepare the medium containing the sample. All samples were prepared so as to have a concentration of 3 μM of the compound in Examples 1 to 9 and Comparative Example 1. Further, when ABA is applied, the ABA concentration was adjusted to 0.3 μM. 20 to 30 vernalized seeds of thale cress were planted in each well and cultured at 22° C. under continuous light to monitor the number of seeds germinated over time. The germination rate was calculated by the following formula (1). Note that those cultured in medium prepared using methanol in the same manner were used as controls. […] Germination rate (%)=Number of seeds germinated/Number of seeds planted×100 (1)
The same test was carried out as in Test Example 1 with the concentrations of the compound of Example 1 for treatment varying from 0.3 μM to 30 μM.
Similarly, the same test was carried out with the concentrations of the compound of Example 2 for treatment varying from 0.3 μM to 30 μM.
The same test was carried out as in Test Example 2 with the concentrations of the compounds for treatment varying from 0.3 μM to 3 μM to compare the recovery effects on seed germination rate of the compound of Example 1 and the compound of Comparative Example 1.

In experiment [2] the target is T1, recombined PYL5 (Arabidopsis thaliana, UniProt Q9FLB1).
T1 construct: 6xHis (N); made in house; host or cells: Escherichia coli BL21-codonplus(DE3)-RIPL
T1 sequence (Q9FLB1 1-203): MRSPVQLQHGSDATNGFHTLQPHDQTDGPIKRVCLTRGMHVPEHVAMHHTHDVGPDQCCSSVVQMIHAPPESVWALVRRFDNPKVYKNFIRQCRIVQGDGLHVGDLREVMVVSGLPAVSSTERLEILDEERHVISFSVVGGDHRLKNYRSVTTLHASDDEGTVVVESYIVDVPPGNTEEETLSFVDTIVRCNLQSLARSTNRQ
In words: Bonding affinity measurement using an isothermal titration calorimeter. Particulars: ITC, 20° C., sodium phosphate buffer. The experiment is classed as binding, thale cress. How it is done: A sodium phosphate buffer solution of a recombined PYL5 was prepared in the same procedure as in Test Example 5, and put in a reaction cell of an isothermal titration calorimeter (GE Healthcare, MicroCal iTC200), and a sodium phosphate buffer solution of the compound of Example 1 was put in the syringe. Then, the calorimeter was set to 20° C. and the measurement was carded out. The same measurement as above was also carried out for the compounds of Examples 7 to 9.
For orientation: Isothermal titration calorimetry measures the heat released or taken up as one component is titrated into another.

In experiment [3] the test system is thale cress (Arabidopsis thaliana, Col-0) seedlings. Description: Thale cress growth test. In kind it is in vivo. The note with it: 50 μM compound co-applied with 5 μM ABA, sprayed once a day; three weeks' culture. How it is done:
Seeds of thale cress (Arabidopsis thaliana, Col-0) were sequentially immersed for 1 minute respectively in 500 μL of an aqueous solution of 5% bleach+1% SDS, 500 μL of a 70% aqueous solution of ethanol and 500 μL of a 70% aqueous solution of ethanol, washed five times in 1 mL of sterilized water, and then suspended in a 0.1% aqueous solution of agar. 25 mL each of germination medium (containing ½ MS medium inorganic salts) sterilized in an autoclave was added to a sterilized plastic petri dish, in which 60 to 80 seeds suspended in the 0.1% aqueous solution of agar were planted and, in a dark place, the seeds were vernilized at 4° C. for 3 days. The seeds were cultured at 22° C. under continuous light for 10 days. 40 g […] of sterilized soil (organic culture soil:vermiculite=1:1) was added to a plastic pot (50 mm×50 mm×50 mm, 35 mm bottom surface×35 mm height). Six plastic pots thus provided were placed in a 3000 mL-tray, 300 mL (depth 10 mm) of an aqueous solution of 1000-fold diluted HYPONeX (tradename (registered trademark), product of HYPONeX JAPAN CORP., LTD.) was added thereto and five roots each of thale cress seedlings were transplanted from the plastic petri dish. The seedlings were cultured at 22° C. under conditions of 16 hour light period-8 hour dark period, and 1 mL of an aqueous solution (prepared so as the final concentration of the compound of Example 7 to be 50 μM) of 0.1% DMSO (containing the compound of Example 7)+0.1% Approach BI (tradename (registered trademark), product of Kao Corporation) was sprayed once a day. Further, 300 mL of an aqueous solution of 2000-fold diluted HYPONeX was added every week. The same treatment as above was carried out using the compound of Comparative Example 1. Note that the seedlings, to which 1 mL of an aqueous solution of 0.1% DMSO+0.1% Approach BI without containing the above compound was sprayed once a day, were used as controls. […]

The subject of experiment [4] is lettuce (Lactuca saliva) seeds. In words: Lettuce seed germination test. In kind it is in vivo. Particulars: co-applied with ABA.
In experiment [5] the test system is bok choy (Brassica rapa var. chinensis) seeds. Description: Bok choy seed germination test. The experiment is classed as in vivo. The note with it: co-applied with ABA.
[6] abbreviates: 3 μM compound co-applied with 0.3 μM ABA.

Broadly, the Kd is the constant that tells how readily two partners part at equilibrium. With `CCCCCCSC1=C(C)[C@](O)(/C=C/C(C)=C\C(=O)O)C(C)(C)CC1=O` [Comparative Example 1, 3′-hexylsulfanyl-abscisic acid, reference compound], in experiment [1] (setting [6]), the “Germination rate (%) 24 Hours later” value is given as 0%, the “Germination rate (%) 36 Hours later” value amounted to 28%, the “Germination rate (%) 48 Hours later” value came to 67% and the “Germination rate (%) 60 Hours later” value was 89%. Moreover, in experiment [1] (compound alone, 3 μM), the “Germination rate (%) 24 Hours later” value is 0%, the “Germination rate (%) 36 Hours later” value was 85%, the “Germination rate (%) 48 Hours later” value came out at 100% and the “Germination rate (%) 60 Hours later” value was 100%. For the same compound, in experiment [2], the Kd came out at 0.48 ± 0.1 µM, the ΔG is -40.2 ± 0.42 kJ/mol, the ΔH is -40.6 ± 0.84 kJ/mol and the “−TΔS” value is 5.02 kJ/mol. Further, the “Growth suppression effect of ABA on thale cress” value in experiment [3] is “the growth suppression effect of ABA was not substantially improved”.
With `CC1=C[C@@H](OCC#Cc2cccc3ccccc23)CC(C)(C)[C@@]1(O)/C=C/C(C)=C\C(=O)O` [Example 2], in experiment [1] (setting [6]), the “Germination rate (%) 24 Hours later” value amounted to 9%, the “Germination rate (%) 36 Hours later” value was found to be 22%, the “Germination rate (%) 48 Hours later” value is 53% and the “Germination rate (%) 60 Hours later” value was determined as 89%. Besides, the “Recovery of seed germination rate decreased by ABA” value in experiment [1] (compound 0.3 μM to 30 μM co-applied with ABA) was “seed germination rates decreased by ABA are recovered”. In experiment [1] (compound alone, 3 μM), the “Germination rate (%) 24 Hours later” value is 11%, the “Germination rate (%) 36 Hours later” value came out at 27%, the “Germination rate (%) 48 Hours later” value amounted to 77% and the “Germination rate (%) 60 Hours later” value came out at 100%. Also, the “Recovery of seed germination rate decreased by ABA” value in experiment [4] was “recovered the seed germination rates once decreased by ABA”. Besides, the “Recovery of seed germination rate decreased by ABA” value in experiment [5] is listed as “recovered the seed germination rates once decreased by ABA”.

Source of the values: patent publication US10125095B2, “Abscisic acid derivative” (NATIONAL UNIVERSITY CORPORATION SHIZUOKA UNIVERSITY, priority 2014, dated 2018).
